The test system of this experiment is P. falciparum (NF54 or 3D7 strain). Description: Assay for P. falciparum proliferation in infected human blood cells (SYBR Green). Type of experiment: cell-based, Plasmodium falciparum. On the procedure:
Assay for P. falciparum Proliferation in Infected Human Blood Cells
Compounds of the invention can be assayed to measure their capacity to inhibit proliferation of P. falciparum parasitemia in infected red blood cells. This parasite proliferation assay measures the increase in parasite DNA content using a DNA intercalating dye, SYBR Green® (INVITROGEN®) which has a high affinity for double stranded DNA.
NF54 or 3D7 P. falciparum strain is grown in complete culturing media until parasitemia reaches 3% to 8% with O+ human erythrocytes. […] 20 μl of screening media is dispensed into 384 well assay plates. 50 nl of compounds of the invention (in DMSO), including antimalarial controls (mefloquine, pyrimethamine and artemisinin), are then transferred into the assay plates, as well as DMSO alone to serve as a negative control for inhibition. Then 30 μl of a suspension of a NF54 or 3D7 P. falciparum infected erythrocytes in screening media is dispensed into the assay plates such that the final hematocrit is 2.5% with a final parasitemia of 0.3%. The plates are placed in a 37° C. incubator for 72 hours in a low oxygen environment containing 93% N2, 4% CO2, and 3% O2 gas mixture. 10 μl of lysis buffer (saponin, triton-X, EDTA) containing a 10× solution of SYBR Green I® in RPMI media is dispensed into the plates. The plates are lidded and kept at room temperature overnight for the lysis of the infected red blood cells. The fluorescence intensity is measured (excitation […], emission 530 nm) using the Envision™ system (Perkin Elmer).

[1] abbreviates: Plasmodium falciparum, Erythrocyte, 72 h, NF54 or 3D7 infected human erythrocytes, 72 hours, read-out: EC50 (nM), inhibitory efficacy in delaying P. falciparum proliferation in infected human blood cells.

Read-outs that look alike come from different tables or passages of the source.

For the compound “4-{6-[N-methyl(4-cyanobenzene)amido]imidazo[1,2-a]pyrazin-3-yl}benzamide [Compound 495]”, the EC50 (NF54 or 3D7 infected human erythrocytes, 72 hours, read-out: EC50 (nM), inhibitory efficacy in delaying P. falciparum proliferation in infected human blood cells) was found to be 405 nM.

As for `CC(N)C(=O)Nc1ccc(-c2cnc3cnc(C(=O)N(C)c4ccc(C#N)cc4)cn23)cc1` (stereo in doubt) [Compound 271, 3-{4-[(2S)-2-aminopropanamido]phenyl}-N-(4-cyanophenyl)-N-methylimidazo[1,2-a]pyrazine-6-carboxamide], under setting [1], the EC50 amounted to 207 nM.

Take `CN(C(=O)c1cn2c(-c3ccc(NC(=O)C(N)C4CC4)cc3)cnc2cn1)c1ccc(C#N)cc1` (stereo in doubt) [Compound 292, 3-{4-[(2S)-2-amino-2-cyclopropylacetamido]phenyl}-N-(4-cyanophenyl)-N-methylimidazo[1,2-a]pyrazine-6-carboxamide]: the EC50 under setting [1] is 304 nM. Regarding `CN(C)CCCOc1ccc(-c2cnc3cnc(C(=O)N(C)c4ccc(C#N)cc4)cn23)cn1` [Compound 1, N-(4-cyanophenyl)-3-(6-(3-(dimethylamino)propoxy)pyridin-3-yl)-N-methylimidazo[1,2-a]pyrazine-6-carboxamide], under setting [1], the EC50 stood at 477 nM. For the compound `CN(Cc1cn2c(-c3ccc(-c4ccn[nH]4)cc3)cnc2cn1)c1ccc(C#N)cc1` [Compound 2, 4-(((3-(4-(1H-pyrazol-5-yl)phenyl)imidazo[1,2-a]pyrazin-6-yl)methyl)(methyl)amino)benzonitrile], under setting [1], the EC50 stood at 66 nM.

Take `CN(Cc1cn2c(-c3ccc(-c4ccn[nH]4)cc3)cnc2cn1)c1ccc(F)cc1` [Compound 3, N-((3-(4-(1H-pyrazol-5-yl)phenyl)imidazo[1,2-a]pyrazin-6-yl)methyl)-4-fluoro-N-methylaniline]: the EC50 under setting [1] came to 58 nM. On the same count and under the same terms, with `CN(Cc1cn2c(-c3ccc(Cl)cc3)cnc2cn1)c1ccc(C#N)cc1` [Compound 4, 4-(((3-(4-chlorophenyl)imidazo[1,2-a]pyrazin-6-yl)methyl)(methyl)amino)benzonitrile] the figure was 185 nM. On the same count and under the same terms, the result for `CN(Cc1cn2c(-c3ccc(-c4ccn[nH]4)cc3)cnc2cn1)c1ccc(Cl)cc1` [Compound 5, N-((3-(4-(1H-pyrazol-5-yl)phenyl)imidazo[1,2-a]pyrazin-6-yl)methyl)-4-chloro-N-methylaniline] reads 238 nM; that for `CN(C(=O)c1cn2c(-c3ccc(C(F)(F)F)cc3)cnc2cn1)c1ncc(Cl)cc1F` [Compound 6, N-(5-chloro-3-fluoropyridin-2-yl)-N-methyl-3-(4-(trifluoromethyl)phenyl)imidazo[1,2-a]pyrazine-6-carboxamide], 619 nM. `CS(=O)(=O)c1ccc2c(c1)CCN2C(=O)c1cn2c(-c3ccc(C(F)(F)F)cc3)cnc2cn1` [Compound 7, 5-methanesulfonyl-1-({3-[4-(trifluoromethyl)phenyl]imidazo[1,2-a]pyrazin-6-yl}carbonyl)-2,3-dihydro-1H-indole]: under setting [1], the EC50 was more than 10000 nM. In the case of `CN(Cc1cn2c(-c3ccc4c(cnn4C)c3)cnc2cn1)c1ccc(F)cc1` [Compound 8, 4-fluoro-N-methyl-N-((3-(1-methyl-1H-indazol-5-yl)imidazo[1,2-a]pyrazin-6-yl)methyl)aniline], the EC50 under setting [1] was determined as 21 nM. On to `CN(Cc1cn2c(-c3ccc(-n4cccn4)cc3)cnc2cn1)c1ccc(Cl)cc1` [Compound 9, N-((3-(4-(1H-pyrazol-1-yl)phenyl)imidazo[1,2-a]pyrazin-6-yl)methyl)-4-chloro-N-methylaniline], for which, under setting [1], the EC50 came to 218 nM.

For `CN(Cc1cn2c(-c3ccc(-n4cccn4)cc3)cnc2cn1)c1ccc(F)cc1` [Compound 10], the EC50 (Plasmodium falciparum, 3D7|NF54, Erythrocyte, in Homo sapiens, 72 h, NF54 or 3D7 infected human erythrocytes, 72 hours, read-out: EC50 (nM), inhibitory efficacy in delaying P. falciparum proliferation in infected human blood cells) was 189 nM. Turning to `CN(C(=O)c1cn2c(-c3ccc(C(F)(F)F)cc3)cnc2cn1)c1ccc2c(c1)nnn2C` [Compound 12, N-methyl-N-(1-methyl-1H-benzo[d][1,2,3]triazol-5-yl)-3-(4-(trifluoromethyl)phenyl)imidazo[1,2-a]pyrazine-6-carboxamide], the EC50 under setting [1] amounted to 4850 nM. Regarding `CN(C(=O)c1cn2c(-c3ccc(-c4ccn[nH]4)cc3)cnc2cn1)c1ccc(Cl)cc1` [Compound 13, N-(4-chlorophenyl)-N-methyl-3-[4-(1H-pyrazol-5-yl)phenyl]imidazo[1,2-a]pyrazine-6-carboxamide], under setting [1], the EC50 is 41 nM. On the same count and under the same terms, with `CN(C(=O)c1cn2c(-c3ccc(C(F)(F)F)cc3)cnc2cn1)c1nc2ccccc2s1` [Compound 14, N-(1,3-benzothiazol-2-yl)-N-methyl-3-[4-(trifluoromethyl)phenyl]imidazo[1,2-a]pyrazine-6-carboxamide] the figure was 9580 nM. In the case of `CN(C(=O)c1cn2c(-c3ccc(-c4nnc(N)o4)cc3)cnc2cn1)c1ccc(Cl)cc1` [Compound 15, -[4-(5-amino-1,3,4-oxadiazol-2-yl)phenyl]-N-(4-chlorophenyl)-N-methylimidazo[1,2-a]pyrazine-6-carboxamide], under setting [1], the EC50 worked out at 29 nM.

`COc1cccnc1N(C)C(=O)c1cn2c(-c3ccc(C(F)(F)F)cc3)cnc2cn1` [Compound 16, N-(3-methoxypyridin-2-yl)-N-methyl-3-[4-(trifluoromethyl)phenyl]imidazo[1,2-a]pyrazine-6-carboxamide]: the EC50 under setting [1] amounted to 454 nM. As to `CN(C(=O)c1cn2c(-c3ccc(Cl)cc3)cnc2cn1)c1ccc(S(C)(=O)=O)cc1` [Compound 17, 3-(4-chlorophenyl)-N-(4-methanesulfonylphenyl)-N-methylimidazo[1,2-a]pyrazine-6-carboxamide], the EC50 under setting [1] amounted to 602 nM. For `CN(Cc1cn2c(-c3ccc(Cl)cc3)cnc2cn1)c1ccc(F)cc1` [Compound 18, N-{[3-(4-chlorophenyl)imidazo[1,2-a]pyrazin-6-yl]methyl}-4-fluoro-N-methylaniline], the EC50 under setting [1] came out at 78 nM. Still for that read-out and setting: the result for `Cc1ccc(-c2cnc3cnc(C(=O)N(C)c4ccc(C#N)cc4)cn23)nc1` [Compound 19, N-(4-cyanophenyl)-N-methyl-3-(5-methylpyridin-2-yl)imidazo[1,2-a]pyrazine-6-carboxamide] reads 280 nM; that for `CN(C(=O)c1cn2c(-c3ccc(Cl)cc3Cl)cnc2cn1)c1ccc(C#N)cc1` [Compound 20, N-(4-cyanophenyl)-3-(2,4-dichlorophenyl)-N-methylimidazo[1,2-a]pyrazine-6-carboxamide], more than 10000 nM; that for `CN(Cc1cn2c(-c3ccc(OC(F)F)cc3)cnc2cn1)c1ccc(F)cc1` [Compound 21, N-({3-[4-(difluoromethoxy)phenyl]imidazo[1,2-a]pyrazin-6-yl}methyl)-4-fluoro-N-methylaniline], 46 nM. On to `CN(C(=O)c1cn2c(-c3ccc(C(N)=O)cc3)cnc2cn1)c1ccc(F)c(F)c1` [Compound 22, 3-(4-carbamoylphenyl)-N-(3,4-difluorophenyl)-N-methylimidazo[1,2-a]pyrazine-6-carboxamide], for which the EC50 under setting [1] turned out to be 74 nM. Same read-out and setting: with `CN(C(=O)c1cn2c(-c3ccc(C(F)(F)F)cc3)cnc2cn1)c1ccc(F)cc1F` [Compound 23, N-(2,4-difluorophenyl)-N-methyl-3-[4-(trifluoromethyl)phenyl]imidazo[1,2-a]pyrazine-6-carboxamide] the figure was 99 nM. The same measure, in the same setting: the result for `CN(C(=O)c1ccc(N2CCOCC2)cc1)c1cn2c(-c3ccc(C(F)(F)F)cc3)cnc2cn1` [Compound 24, N-methyl-4-(morpholin-4-yl)-N-{3-[4-(trifluoromethyl)phenyl]imidazo[1,2-a]pyrazin-6-yl}benzamide] reads 1120 nM. Regarding `CN(Cc1cn2c(-c3ccc(-c4nnc(N)s4)cc3)cnc2cn1)c1ccc(C#N)cc1` [Compound 25, 4-[({3-[4-(5-amino-1,3,4-thiadiazol-2-yl)phenyl]imidazo[1,2-a]pyrazin-6-yl}methyl)(methyl)amino]benzonitrile], the EC50 reads like this: under setting [1], 6 nM; (Plasmodium falciparum, Erythrocyte, infected human red blood cells, read-out: EC50, P. falciparum Proliferation Assay) less than 50 nM.

Consider `Cc1cc(Cl)ccc1-c1cnc2cnc(C(=O)N(C)c3ccc(C#N)cc3)cn12` [Compound 26, 3-(4-chloro-2-methylphenyl)-N-(4-cyanophenyl)-N-methylimidazo[1,2-a]pyrazine-6-carboxamide], for which the EC50 under setting [1] stood at 8330 nM.

In the case of `CN(C(=O)c1cn2c(-c3ccnc(Cl)c3)cnc2cn1)c1ccc(C#N)cc1` [Compound 27, 3-(2-chloropyridin-4-yl)-N-(4-cyanophenyl)-N-methylimidazo[1,2-a]pyrazine-6-carboxamide], under setting [1], the EC50 is more than 10000 nM. For `CN(Cc1cn2c(-c3ccc(-c4nnc(N)s4)cc3)cnc2cn1)c1ccc(Cl)nc1` [Compound 28, -({3-[4-(5-amino-1,3,4-thiadiazol-2-yl)phenyl]imidazo[1,2-a]pyrazin-6-yl}methyl)-6-chloro-N-methylpyridin-3-amine], under setting [1], the EC50 was 13 nM. As for `CN(C(=O)c1cn2c(-c3ncc(F)cc3F)cnc2cn1)c1ccc(C#N)cc1` [Compound 29, N-(4-cyanophenyl)-3-(3,5-difluoropyridin-2-yl)-N-methylimidazo[1,2-a]pyrazine-6-carboxamide], the EC50 under setting [1] turned out to be 2040 nM.

For the origin of these results see US20150291598A1 (NOVARTIS AG, priority 2012, published 2015).
